Measurements published in patent US20220338769A1, “METHODS AND APPARATUS FOR SUBSTANCE DELIVERY IN AN IMPLANTABLE DEVICE” (GlySens Incorporated, priority 2021, published 2022).

What was measured:
[1] = cited from earlier work
[2] = human, in vivo
[3] = cited from earlier work; remark: listed apart in the source
[4] = Expected patient plasma DXA at the exemplary elution rates; type: in vivo; conditions: below LOQ
Protocol: With a manufacturing process that consists of at least two months (60 days) from the start of elution until implant, and using data from in vitro release testing, a daily release of between approximately 2 and 5 μg DXA in one exemplary embodiment is expected over the life of the implant (average of approximately 3 μg/day). These exemplary elution rates are within range of the elution rates seen in the above-referenced predicate devices. At these elution rates, it can be reasonably expected that patient plasma DXA levels to be below the 50 pg/mL LOQ. The full modeled release profile is shown in FIG. 2, which illustrates total release 212 of DXA from the implantable sensor device accumulating prior to implantation with, daily release 214 of DXA from the implantable sensor starting at a rate of approximately 4.8 μg per day upon implantation and gradually reducing to below 2.0 μg/day over the period of implantation. In other embodiments, DSP, other dexamethasone compounds, and/or other eluting anti-inflammatory drugs may be used similarly.

SMILES | water solubility [1] | daily dose required to have a DXA level greater than the LOQ in plasma [2] | plasma DXA ([3]; one device implanted, no measurable DXA, LOQ = 50 pg/mL) | maximum reported plasma DXA ([3]; two devices implanted) | time DXA measurable in plasma after implant ([3]; two devices implanted, some patients) | expected patient plasma DXA levels [4]
C[C@@H]1C[C@H]2[C@@H]3CCC4=CC(=O)C=C[C@]4(C)[C@@]3(F)[C@@H](O)C[C@]2(C)[C@@]1(O)C(=O)COP(=O)(O)O [DSP, dexamethasone sodium phosphate] | highly water soluble | – | – | – | – | –
CC(=O)OCC(=O)[C@@]1(O)[C@H](C)C[C@H]2[C@@H]3CCC4=CC(=O)C=C[C@]4(C)[C@@]3(F)[C@@H](O)C[C@@]21C [DXA, dexamethasone acetate] | – | ≥ 15 µg | < 50 pg/mL | 114 pg/mL | up to 8 days | < 50 pg/mL
